Measured values taken from ChEMBL document CHEMBL1201862, “PubChem BioAssay data set” (2004).
The source made the active and inactive calls.

Tests used:
[1] = cytotoxicity toward NIH3T3 fibroblasts, dose response, counter-screen, cell-based, ATP luminescence, mouse fibroblasts (AID 2010); format: functional;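 also: cells exposed to compound for about 90 hours before reading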
[2] = inhibitors of intracellular T. cruzi replication, confirmation, NIH3T3 host cells, beta-gal luminescence (AID 2044); format: functional, cell-based;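 also: intracellular parasites grown in NIH/3T3 mouse fibroblasts as host cells; luminescent beta-galactosidase reporter signal from transgenic T. cruzi replicating inside host cells; inhibitors lower the luminescence signal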
[3] = target: Cytochrome P450 3A4 (Homo sapiens, UniProt P08684);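 also: CYP3A4 tested as one member of a cytochrome P450 panel screen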
[4] = target: Cytochrome P450 2C19 (Homo sapiens, UniProt P33261); test: Cytochrome panel assay with activity outcomes. Panel member name: p450-cyp2c19 Compounds with AC50 equal or less than 10 uM are considered active; format: functional
[5] = test system: Streptococcus; test: Group A Streptococcus viability loss, dose response, counter-screen for streptokinase expression inhibitor project, luminescence, BacTiterGlo (AID 1915); format: functional, organism-based;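 also: potency for reduction of bacterial viability or growth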
[6] = test system: Streptococcus sp. 'group A'; test: growth inhibition of control SK(-) GAS strain, dose response, counter-screen for streptokinase expression inhibitor project, luminescence, kanamycin, BacTiterGlo, confirmation (AID 1900); format: functional, organism-based

Chain of Cytochrome P450 2C19 (P33261 whole entry): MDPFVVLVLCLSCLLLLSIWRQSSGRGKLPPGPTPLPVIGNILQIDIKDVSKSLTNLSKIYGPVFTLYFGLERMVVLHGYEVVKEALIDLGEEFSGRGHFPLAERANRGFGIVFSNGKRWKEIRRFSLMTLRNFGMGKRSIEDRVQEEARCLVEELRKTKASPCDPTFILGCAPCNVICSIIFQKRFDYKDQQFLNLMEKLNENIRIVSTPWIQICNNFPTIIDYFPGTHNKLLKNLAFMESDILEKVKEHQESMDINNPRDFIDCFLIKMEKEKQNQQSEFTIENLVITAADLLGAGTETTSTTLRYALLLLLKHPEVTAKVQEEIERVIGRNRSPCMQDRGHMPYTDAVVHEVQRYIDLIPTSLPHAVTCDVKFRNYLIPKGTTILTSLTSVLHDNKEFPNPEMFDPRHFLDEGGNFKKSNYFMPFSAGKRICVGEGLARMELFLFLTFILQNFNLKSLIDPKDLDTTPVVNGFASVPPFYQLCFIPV
Chain of Cytochrome P450 3A4 (P08684 whole entry): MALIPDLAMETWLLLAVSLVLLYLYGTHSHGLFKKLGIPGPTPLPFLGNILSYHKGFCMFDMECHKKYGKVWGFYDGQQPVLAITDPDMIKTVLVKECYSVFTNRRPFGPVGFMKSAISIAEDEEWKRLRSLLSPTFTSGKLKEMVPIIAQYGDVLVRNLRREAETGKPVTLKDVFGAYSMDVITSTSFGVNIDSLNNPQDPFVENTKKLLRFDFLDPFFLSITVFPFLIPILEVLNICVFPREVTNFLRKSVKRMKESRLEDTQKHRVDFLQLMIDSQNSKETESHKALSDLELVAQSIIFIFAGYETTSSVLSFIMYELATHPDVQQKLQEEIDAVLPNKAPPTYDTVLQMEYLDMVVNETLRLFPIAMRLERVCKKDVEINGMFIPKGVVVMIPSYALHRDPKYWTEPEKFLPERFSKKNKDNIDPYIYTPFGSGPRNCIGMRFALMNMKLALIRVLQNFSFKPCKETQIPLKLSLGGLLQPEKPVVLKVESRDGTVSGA

Structure (SMILES) | EC50 [1] | EC50 [2] | AC50 [3] | other results
CN1CCN(CCOc2ccc(Cc3ccccc3)cc2)CC1 | > 60 µM (not active) | 0.378 µM (active) |  | 
COc1ccc2ccccc2c1CNC(C)CCc1ccccc1 (stereo not drawn) | > 60 µM (not active) | 2.94 µM (active) |  | 
Cc1cc(C)c2nc(N(CCCN(C)C)C(=O)c3ccc(S(=O)(=O)N4CC(C)OC(C)C4)cc3)sc2c1 (stereo not drawn) | > 30 µM (not active) | 0.297 µM (active) |  | 
CC(C)(C)c1ccc(-c2nc3c(C#N)c(-c4ccc5c(c4)OCO5)ccn3n2)cc1 | > 60 µM (not active) | 1.46 µM (active) |  | 
CCOC(=O)C(C)Sc1ncc(OC)c(Sc2ccc(Cl)cc2)n1 (stereo not drawn) |  |  | 20 µM (inconclusive) | 
COc1cc(CNCCc2ccccc2)ccc1OCC(=O)NC(C)(C)C |  |  |  | AC50 ([4]; read-out: AC50): 28.2 µM (inconclusive)
O=C(Nc1cccc(F)c1)Nc1ccccn1 |  |  |  | AC50 ([4]; read-out: AC50): 17.8 µM (inconclusive)
O=C(O)CN1CCN(Cc2ccccc2Cl)C1=O |  |  | 28.2 µM (inconclusive) | 
COc1ccccc1CN1CC[C@@]2(CCCN(S(C)(=O)=O)C2)C1 |  |  | 20 µM (inconclusive) | 
COc1cccc(Cn2c(=O)c(C)nc3cnc(N4CCN(C)CC4)nc32)c1 |  |  |  | AC50 ([4]; read-out: AC50): 39.8 µM (inconclusive)
CC(=O)NS(=O)(=O)c1ccc(NC(=S)NC(=O)C(C)(C)C)cc1 |  |  |  | AC50 [4]: inconclusive
COc1cc(Cl)cc(/C=C/c2ccc3cccc(O)c3n2)c1OC |  |  |  | EC50 [5]: 1.85 µM (active); EC50 [6]: 0.851 µM (active)
Cc1ccccc1-c1nc(-c2ccc(NC(=O)c3cccs3)cc2)no1 |  |  | 39.8 µM (inconclusive) | 
Cn1c(=O)c(-c2ccc(Cl)cc2)nc2cnc(N3CCNCC3)nc21 |  |  | 20 µM (inconclusive) | 
CCOC(=O)c1c(N=C(S)N2CCN(C)CC2)sc(C)c1-c1ccccc1 | > 30 µM (not active) | 0.467 µM (active) |  | EC50 [5]: > 150 µM (not active); EC50 [6]: 6.75 µM (active)
Cc1ccc(/C=C/c2ccc(=O)n(Cc3ccc(Cl)cc3Cl)n2)cc1 |  |  |  | AC50 ([4]; read-out: AC50): 4.47 µM (inconclusive)

Structure (SMILES) | EC50 [1] | EC50 [2] | AC50 [3] | other results
Cc1ccc(C)n1N1C(=O)/C(=C\c2ccc(Cl)cc2)SC1=S |  |  | 15.8 µM (inconclusive) | 
O=C(Nc1ccccc1)N1CC[C@@]2(CCCN(C(=O)c3cnccn3)C2)C1 |  |  | 15.8 µM (inconclusive) | 
CCN1CCCC1Cn1cnc2c3cc(C)ccc3nc-2c1O (stereo not drawn) |  |  | 22.4 µM (inconclusive) | 
O=C(Nc1cccc(F)c1)N1CC[C@@]2(CCCN(C(=O)c3cc(C(F)(F)F)cc(C(F)(F)F)c3)C2)C1 |  |  |  | AC50 ([4]; read-out: AC50): 25.1 µM (inconclusive)
CN(C)CCn1c(=O)n(Cc2ccccc2)c(=O)c2c3c(sc21)CCCCC3 | > 60 µM (not active) | 0.505 µM (active) |  | 
COc1ccc(-n2cc(CN(C)C(C)c3ccncn3)c(-c3cccc(F)c3)n2)cc1 (stereo not drawn) | > 60 µM (not active) | 2.99 µM (active) |  | 
Cc1cc(S(=O)(=O)Nc2ccc(C(=O)NCC(c3ccco3)N3CCCC3)cc2)ccc1F (stereo not drawn) | > 60 µM (not active) | 0.578 µM (active) |  | 
Cc1ccc(-c2cn(S(=O)(=O)c3cccc([N+](=O)[O-])c3)nc2N)cc1 | > 30 µM (not active) | 1.03 µM (active) |  | 
CCCCn1c(-c2cccc3ccccc23)nc2cc3nc(O)c(C(C)C)nc3cc21 | > 60 µM (not active) | 1.08 µM (active) |  | 
O=C(Nc1cccc(F)c1)N1CCCC2(CCN(C(=O)c3cnccn3)CC2)C1 |  |  |  | AC50 ([4]; read-out: AC50): 20 µM (inconclusive)
CSc1nc(C)c2c(n1)N(c1ccc(C(F)(F)F)cc1)CC2 |  |  |  | AC50 ([4]; read-out: AC50): 11.2 µM (inconclusive)
COc1cc(/C=C(/NC(=O)c2ccccc2Cl)C(=O)O)cc(OC)c1OC |  |  | 14.1 µM (inconclusive) | 
CC(C)Oc1c(Br)cc(Br)cc1/C=N/NC(N)=S | > 30 µM (not active) | 1.35 µM (active) |  | 
C/C(=N\NC(N)=S)C1=CCC2C3CC[C@H]4CC(O)CC[C@]4(C)C3CC[C@]12C (stereo partly drawn) | 9.97 µM (active) | 0.159 µM (active) |  | 
Brc1ccc(-c2ccc(/C=N/Nc3nc4ccccc4[nH]3)o2)cc1 | > 60 µM (not active) | 1.03 µM (active) |  | 
CCOc1cc(/C=N/n2cnnc2)c(Br)cc1O |  |  | 14.1 µM (inconclusive) | 
